Measurements reported in publication PMC2703642, “PpoR is a conserved unpaired LuxR solo of Pseudomonas putida which binds N-acyl homoserine lactones” (BMC Microbiology, 2009).

Target: T1, PpoR (Pseudomonas putida, UniProt Q88E21)
T1 construct: gene PP_4647; full-length, 235 aa [sic] (705 bp ORF); 721-bp fragment with entire ppoR cloned SphI-HindIII in pQE30 (pQEPpoR); expressed in E. coli M15(pRep4); not purified
Experiment: AHL retention in washed E. coli cells expressing PpoR, ethyl acetate extraction, TLC with A. tumefaciens NTL4 (pZLR4) overlay
Assay type: cell-based
Settings: 1 uM AHL in LB, 30 C, IPTG induction 3.5 h; pQE30 vector-only control

T1 sequence (Q88E21 entry or part of it): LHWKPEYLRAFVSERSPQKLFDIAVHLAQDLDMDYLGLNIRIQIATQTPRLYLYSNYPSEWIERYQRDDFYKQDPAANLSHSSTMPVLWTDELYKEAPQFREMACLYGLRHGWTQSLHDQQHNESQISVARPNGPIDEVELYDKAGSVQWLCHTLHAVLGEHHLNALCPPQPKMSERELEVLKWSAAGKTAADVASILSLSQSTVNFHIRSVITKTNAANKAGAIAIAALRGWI

SMILES | AHL retention in washed E. coli cells expressing PpoR, ethyl acetate extraction,
CCCC(=O)CC(=O)N[C@H]1CCOC1=O [3-oxo-C6-HSL] | Purification of AHLs from E. coli over-expressing PpoR resulted in detection of 3-oxo-C6-HSL
CCCCCCCC(=O)CC(=O)N[C@H]1CCOC1=O [3-oxo-C10-HSL] | PpoR also exhibited probable binding to 3-oxo-C8-HSL and 3-oxo-C10-HSL, but to a lower extent
CCCCCC(=O)CC(=O)N[C@H]1CCOC1=O [3-oxo-C8-HSL] | PpoR also exhibited probable binding to 3-oxo-C8-HSL and 3-oxo-C10-HSL, but to a lower extent
